How the values were obtained:
[1] = Calcemia assessment in CYP rats (colorimetric serum calcium assay); type: in vivo, rat; details: both dosage levels (30 and 75 ug/kg); limit of normal range 10.7 mg/dl in rats
Protocol: Serum calcemia was evaluated by a commercially available calorimetric assay (Calcium Dry-Fast, Sentinel CH. Italy). Briefly, 10 ul serum were added to 100 ul reaction solution prepared according to the manufacturer's procedure in a 96-wells plate. After 5 min incubation at RT samples were read at 570 nm with a spectrophotometer and the calcium levels were calculated in triplicate by using a standard reference as directed.

[2] = tested on: ovalbumin specific IgE; assay: Ova-specific IgE ELISA, allergic IC in mice; type: in vivo, mouse; details: 75 ug/kg oral vs vehicle; ovalbumin-sensitized BALB/c mice
Protocol: (§1) Mice (BALB/c, females 8 weeks old, weight 18-20 g, Charles River, Calco ITA) were sensitized by injecting 10 ug/mouse of chicken ovalbumin from Sigma (OVA, grade V) in the presence of 4 mg of alum (SERVA, Germany) by intraperitoneal injection, once a week for 4 weeks. This induces a sustained level of IgE detectable in serum.
(§2) One or two weeks after the last immunization boost, sensitized mice were anesthetized (1.5% Isoflurane) and then trans-urethrally catheterized (24 gauge, ¾ in.; Angiocath, Becton-Dickson). Slight digital pressure was applied the lower abdomen to drain the urine.
(§3) The urinary bladders were instilled with either 150 ul of either saline or OVA alone, (1 mg/150 ul) infused at a slow rate to avoid trauma and vesico-ureteral reflux and repeated twice within a 30-min interval with the syringe kept in place on the catheter for at least 30 min. Intravesical challenge was repeated 7-10 days after the first one with the same procedure.
Treatment Group: 10 mice were treated with oral vitamin D3 analogue (1-alpha-fluoro-25-hydroxy-16,23Ediene-26,27-bishomo-20-epi-cholecalciferol) Compound “B” for 14 days (daily dose of either 30 or 75 ug/kg). […]
Ova-specific IgE were measured according to the following procedure. […] Finally, 450 nm absorbance was recorded after the reaction was stopped.

[3] = tested on: MMCP4; assay: Taq-Man analysis of bladder mRNA, allergic IC in mice: MMCP4; type: in vivo, mouse; details: ovalbumin challenged; 75 ug/kg oral; individual animals
Protocol: as §1, §2, §3
An ethanol stock solution of Compound B (1 mg/ml) was dissolved in Miglyol vehicle at the appropriate concentration. Control animals received the vehicle containing the same amount of ethanol. Drug (or vehicle) treatment was carried out by daily gavage after weighing the animal. Drug solution was prepared calculating a final volume of 100 ul/10 grams body weight, and treatment was started on the day of the first intravesical ovalbumin challenge, maintained daily, but discontinued over the weekends, for 12 days total treatment. FIG. 7 illustrates the timeline of the experiment.
Total RNA was extracted from one half of bladder by using RNeasy Mini kit (Qiagen), treated with DNase 1 (Qiagen) and reverse transcription performed with Reverse Transcription Reagent (Applied Biosystems) with Random Hexamers (according to the manufacturer's instructions). cDNA was synthesized from 1 ug of RNA. Real-Time PCR was performed in 96-well optical reaction plates (Applied Biosystems). For each sample we amplified both the target gene and the housekeeping gene (HPRT) in different wells (singleplex) and in duplicate. The amplification Master Mix was prepared according to the following protocol (volumes refer to a single well with a final volume of 40 ul/well)): 2× TaqMan® R Universal PCR Master Mix (Applied Biosystems, 4304437): 20 ul; 20× Assay target gene: 2 ul; H2O: 8 ul; cDNA: 10 ul. Reaction was run on an SDS 7000 (Applied Biosystems) instruments, with the following amplification program: 2′ at 50° C.; 10′ at 95° C.; 15″ at 95° C. and 1′ at 60° C. for 40 cycles; Cycle threshold (Ct) values were exported into Excel Worksheets for analysis and relative quantitations were performed using the ΔCt method. All primers used carried the FAM reporter.
Experiments in Example 7 were performed according to the general procedures described previously in Example 6. Mice were challenged with saline (untreated) or ovalbumin (treatment with vehicle or one of Compounds C-I at a dosage indicated in Table 6 in ug/kg).

C=C1/C(=C\C=C2/CCC[C@]3(C)C([C@@H](C)C/C=C/C(O)(CC)CC)=CC[C@@H]23)C[C@@H](O)C[C@@H]1F [Compound B, 1-alpha-fluoro-25-hydroxy-16,23E-diene-26,27-bishomo-20-epi-cholecalciferol]
average serum calcium levels [1]: only slightly but not significantly elevated
ovalbumin specific IgE in serum [2]: no significant changes
expression of inflammatory marker MMCP4 [3]: down-modulates

— patent publication US20080039434A1, “Treatment of Interstitial Cystitis with Vitamin D Compounds” (BioXell S. p.A., priority 2004, published 2008)
